The results in this text go back to article PMC5516028, “Molecular tools for GABAA receptors: High affinity ligands for β1-containing subtypes” (Scientific Reports, 2017).

Molecules are shown by their SMILES. Where two headings read alike, the source gives them in different places.

Holding throughout (assay type): cell-based
The target of test [1] is T1, α1β1 GABAA receptors (Rattus norvegicus, UniProt P15431+P62813).
T1 construct: expressed in transfected cells; host or cells: Xenopus laevis oocytes, mRNA injected
Kind of test: Two electrode voltage clamp in Xenopus laevis oocytes, α1β1. The conditions noted are these: for activity at 0.03 µM: 30 nM; for activity at 0.3 µM: 300 nM; for EC50: read-out: EC50. The text has this: (§1) cDNA’s of rat GABAA receptor subunits α1, α4, β1, β2, β3 and γ2S were cloned as described. cDNAs of the rat subunits α2, α3 and α5 were gifts from P. Malherbe, that of α6 and γ1 were gifts of P. Seeburg and that of δ was a gift of C. Czajkowski. The mutants were constructed using the Q5 Site-Directed Mutagenesis Kit (New England Biolabs) following manufacturer’s instruction. We used the wild-type rat β3-pCI vector as template and the primers […] and […] resulting in a substitution of amino acid N41 (AAC) to R (AGG). We used the wild-type rat β1-pCI vector as template and the primers […] and […] resulting in a substitution of amino acid R41 (CGG) to N (AAC). The mutated subunits were confirmed by sequencing.
(§2) In vitro transcription of mRNA was based on the cDNA expression vectors encoding for rat GABAA receptor subunits α1–6, β1-3, γ1,2, δ and the two β mutants (β1R41N and β3N41R)[40]. After linearizing the cDNA vectors with appropriate restriction endonucleases, the cDNA was purified and concentrated with the DNA Clean and Contentrator ^TM Kit (Zymoresearch, Catalog No. D4005). Capped transcripts of the purified cDNA were produced using the mMESSAGE mMACHINE® T7 transcription kit (Ambion, TX, USA) and polyadenylated using the Ambion PolyA tailing kit (Ambion). After transcription and polyadenylation the RNA was purified with the MEGAclear ^TM Kit (Ambion, Catalog No. AM1908). The final RNA concentration was measured on NanoDrop® ND-1000 and finally diluted and stored in diethylpyrocarbonate-treated water at −80 °C. For the microinjection, the RNA of αβ receptor combinations was mixed at 1:1 ratio (which leads to αβ receptors that consist of predominantly 3 beta and 2 alpha subunits[27]), for αkβlγm (k = 1–3, l = 1, 3, m = 1, 2) receptors at 1:1:5 ratio, for αkβ3γ2 (k = 4–6) and αkβlδ (k = 1, 4 and 6, l = 1, 3) receptor combinations at 3:1:5 ratio.
(§3) Mature female Xenopus laevis (Nasco, WI) were anesthetized in a bath of ice-cold 0.17% Tricain (Ethyl-m-aminobenzoate, Sigma, MO) before decapitation in full accordance with all rules of the Austrian animal protection law (see http://www.ris.bka.gv.at/Dokumente/BgblAuth/BGBLA_2012_I_114/BGBLA_2012_I_114.pdf) and the Austrian animal experiment by-laws (see https://www.ris.bka.gv.at/Dokumente/BgblAuth/BGBLA_2012_II_522/BGBLA_2012_II_522.pdf) which implement the European Directive 2010/63/EU (see http://eur-lex.europa.eu/LexUriServ/LexUriServ.do?uri=OJ:L:2010:276:0033:0079:en:PDF) into the Austrian law (all information accessed on July 27, 2016). The frog’s ovaries were transferred to ND96 medium (96 mM NaCl, 2 mM KCl, 1 mM MgCl2, 5 mM HEPES; pH 7.5). Stage 5–6 oocytes with the follicle cell layer around them were roughly dissected with forceps into packages of 10–15 cells and washed in Ca^2+-free ND96 medium. Cells were then digested with collagenase (type IA, Sigma, NO, 1 mg/mL ND96) at 18 °C shaking at 30 rpm for 30–60 minutes and gently defolliculated with the aid of a glass pipette with appropriate tip diameter and a platinum loop. Defolliculated cells were stored at 18 °C for at least 6 hours in ND96 solution containing penicillin G (10000 IU/100 mL) and streptomycin (10 mg/100 mL) in order to preselect and exclude damaged cells from further treatment. Healthy defolliculated oocytes were injected with an aqueous solution of mRNA. A total of 4.5 ng of mRNA per oocyte was injected with a Nanoject II (Drummond). After injection of mRNA, oocytes were incubated at 18 °C (ND96 + antibiotic) for 2–3 days for αβ receptors and for 3–4 days for αβγ or αβδ receptors before recording. When cells were measured at later time points, oocytes were stored at +4 °C instead of 18 °C.
(§4) For electrophysiological recordings, oocytes were placed on a nylon-grid in a bath of Ca^2+-containing NDE solution medium [96 mM NaCl, 5 mM HEPES-NaOH (pH 7.5), 2 mM KCl, 1 mM MgCl2, 1.8 mM CaCl2].

Test [2] deals with T2, α1β3 GABAA receptors (Rattus norvegicus, UniProt P62813+P63079).
T2 construct: expressed in transfected cells; host or cells: Xenopus laevis oocytes, mRNA injected
Kind of test: Two electrode voltage clamp in Xenopus laevis oocytes, α1β3. The settings on record: for activity at 0.1 µM: 100 nM.
Description: as §1, §2, §3, §4
Background: In two-electrode clamp one electrode senses voltage and the other passes current.

The target of test [3] is T3, α1β2 GABAA receptors (Rattus norvegicus, UniProt P62813+P63138).
T3 construct: expressed in transfected cells; host or cells: Xenopus laevis oocytes, mRNA injected
Kind of test: Two electrode voltage clamp in Xenopus laevis oocytes, α1β2. The settings on record: for activity at 0.003 µM: 3 nM; for activity at 0.03 µM: 30 nM.
Description: as §1, §2, §3, §4

In test [4] the target is T4, α1β1R41N GABAA receptors (Rattus norvegicus, UniProt P15431+P62813, R66N).
T4 construct: expressed in transfected cells; host or cells: Xenopus laevis oocytes, mRNA injected
Kind of test: Two electrode voltage clamp in Xenopus laevis oocytes, mutant α1β1R41N. The settings on record: for current as % of control at 0.1 µM: 100nM; for current as % of control at 0.1 µM / current as % of control at 0.3 µM / current as % of control at 1 µM / current as % of control at 3 µM / current as % of control at 10 µM / current as % of control at 30 µM: read-out: % of control current at EC3-5; for current as % of control at 0.3 µM: 300nM.
Description: as §1, §2, §3, §4

Test [5] deals with T5, α1β3N41R GABAA receptors (Rattus norvegicus, UniProt P62813+P63079, N66R).
T5 construct: expressed in transfected cells; host or cells: Xenopus laevis oocytes, mRNA injected
Kind of test: Two electrode voltage clamp in Xenopus laevis oocytes, mutant α1β3N41R. The conditions noted are these: co-applied with GABA EC3-5, read-out: EC50 values for the mutated receptors.
Description: as §1, §2, §3, §4

The mark [6] stands for this setting: read-out: efficacy, % of control current (GABA EC3-5 = 100%), α1β1.
The mark [7] stands for this setting: α1β1, co-applied with GABA EC3-5.
Setting [8] is: read-out: efficacy, % of control current (GABA EC3-5 = 100%), α1β3.
Where [9] appears, read: α1β3, co-applied with GABA EC3-5, read-out: EC50.
[10] abbreviates: read-out: efficacy, % of control current (GABA EC3-5 = 100%), α1β2.

T4 sequence (P62813 28-455): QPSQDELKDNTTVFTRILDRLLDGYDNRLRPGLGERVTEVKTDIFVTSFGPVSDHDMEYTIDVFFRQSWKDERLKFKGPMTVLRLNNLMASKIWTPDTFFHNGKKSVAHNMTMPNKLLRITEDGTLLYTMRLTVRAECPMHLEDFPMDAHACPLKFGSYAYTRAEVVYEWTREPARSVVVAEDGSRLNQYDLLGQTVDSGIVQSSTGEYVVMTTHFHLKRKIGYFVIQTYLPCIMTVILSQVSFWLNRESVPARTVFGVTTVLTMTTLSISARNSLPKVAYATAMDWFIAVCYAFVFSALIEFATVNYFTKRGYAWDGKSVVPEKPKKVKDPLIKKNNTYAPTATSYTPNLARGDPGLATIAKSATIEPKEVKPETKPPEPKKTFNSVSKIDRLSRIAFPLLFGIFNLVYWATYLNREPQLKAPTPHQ
T4 sequence (P15431 26-474 R66N): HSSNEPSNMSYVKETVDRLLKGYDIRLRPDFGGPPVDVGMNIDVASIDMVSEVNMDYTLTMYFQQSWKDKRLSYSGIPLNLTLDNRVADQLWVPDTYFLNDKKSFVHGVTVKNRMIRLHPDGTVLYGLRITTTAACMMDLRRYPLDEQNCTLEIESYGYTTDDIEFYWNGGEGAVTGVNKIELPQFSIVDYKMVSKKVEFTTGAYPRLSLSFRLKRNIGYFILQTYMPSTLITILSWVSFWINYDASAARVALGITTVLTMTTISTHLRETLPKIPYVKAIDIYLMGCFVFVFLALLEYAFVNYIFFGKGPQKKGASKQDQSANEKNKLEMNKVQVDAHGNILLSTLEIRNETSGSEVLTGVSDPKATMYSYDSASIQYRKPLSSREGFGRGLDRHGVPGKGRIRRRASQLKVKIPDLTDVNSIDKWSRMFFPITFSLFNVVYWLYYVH
T2 sequence (P62813 28-455): as the sequence (P62813 28-455) above
T2 sequence (P63079 26-473): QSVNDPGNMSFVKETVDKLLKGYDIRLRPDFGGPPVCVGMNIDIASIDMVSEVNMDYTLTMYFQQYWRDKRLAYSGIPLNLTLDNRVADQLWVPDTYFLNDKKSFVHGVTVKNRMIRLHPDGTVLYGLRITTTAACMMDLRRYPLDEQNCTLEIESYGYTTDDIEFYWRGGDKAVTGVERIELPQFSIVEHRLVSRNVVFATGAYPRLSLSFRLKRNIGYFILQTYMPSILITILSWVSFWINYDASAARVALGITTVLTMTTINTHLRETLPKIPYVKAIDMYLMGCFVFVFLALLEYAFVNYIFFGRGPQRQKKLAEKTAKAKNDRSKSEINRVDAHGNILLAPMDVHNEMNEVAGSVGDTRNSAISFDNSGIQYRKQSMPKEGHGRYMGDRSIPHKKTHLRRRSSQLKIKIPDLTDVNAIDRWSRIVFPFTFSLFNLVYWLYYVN
T3 sequence (P62813 28-455): as the sequence (P62813 28-455) above
T3 sequence (P63138 25-474 limits assumed): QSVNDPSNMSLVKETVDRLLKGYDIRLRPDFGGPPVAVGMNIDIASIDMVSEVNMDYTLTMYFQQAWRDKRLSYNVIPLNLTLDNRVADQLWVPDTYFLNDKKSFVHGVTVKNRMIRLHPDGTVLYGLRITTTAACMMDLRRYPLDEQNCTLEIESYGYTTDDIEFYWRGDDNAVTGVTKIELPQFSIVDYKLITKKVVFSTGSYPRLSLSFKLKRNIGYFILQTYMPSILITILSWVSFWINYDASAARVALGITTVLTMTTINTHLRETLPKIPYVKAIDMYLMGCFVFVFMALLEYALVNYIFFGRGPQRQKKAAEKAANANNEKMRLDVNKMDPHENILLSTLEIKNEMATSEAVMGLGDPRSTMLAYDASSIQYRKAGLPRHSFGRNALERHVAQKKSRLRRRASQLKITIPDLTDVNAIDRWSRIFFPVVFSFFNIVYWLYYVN
T5 sequence (P62813 28-455): as the sequence (P62813 28-455) above
T5 sequence (P63079 26-473 N66R): as the sequence (P63079 26-473) above, with N41R counted along it
T1 sequence (P62813 28-455): as the sequence (P62813 28-455) above
T1 sequence (P15431 26-474): as the sequence (P15431 26-474 R66N) above, with N41R counted along it

For the compound `COc1ccc(-n2nc3c4cc(OC)ccc4[nH]cc-3c2=O)cc1` [Compound 4, 8-Methoxy-2-(4-methoxyphenyl)-2,5-dihydro-3H-pyrazolo[4,3-c]quinolin-3-one], in test [1] (read-out: efficacy, % of control current (GABA EC3-5 = 100%), α1β1, 1 nM), the activity at 0.001 µM was determined as 100%. Besides, the activity at 0.003 µM in test [1] (read-out: efficacy, % of control current (GABA EC3-5 = 100%), α1β1, 3 nM) was 100%; in test [3] (setting [10]) it was 100%. Moreover, the activity at 0.03 µM in test [1] (setting [6]) came out at 127 ± 1%; in test [3] (setting [10]), 100%. Further, the activity at 0.3 µM stood at 397 ± 54.9% in test [1] (setting [6]); 149 ± 15.8% in test [2] (read-out: efficacy, % of control current (GABA EC3-5 = 100%), α1β3, 300 nM); 166 ± 7.9% in test [3] (read-out: efficacy, % of control current (GABA EC3-5 = 100%), α1β2, 300 nM). Also, the activity at 30 µM in test [1] (setting [6]) came to 218 ± 11%. The “Hill slope (nH)” value in test [1] (α1β1) is listed as 1.8±0.4; in test [2] (α1β3), 1.9±0.5; in test [3] (α1β2), 1.3±0.5. The EC50 in test [1] (α1β1 (α1+/β1− interface)) is approximately 0.2 µM; in test [1] (setting [7]), 0.21 µM; in test [2] (setting [9]), 3.13 µM; in test [2] (α1β3, log of EC50, sign as printed, read-out: LogEC50 (converted)) it was 3.09 µM; in test [3], 2.62 µM; in test [4] (co-applied with GABA EC3-5), 1.2 µM. The EC50 in test [5] stood at 1.2 µM. Also, the activity at 1 µM in test [2] (setting [8]) amounted to 242 ± 16%. Moreover, the activity at 3 µM in test [2] (read-out: efficacy, % of control current (GABA EC3-5 = 100%), α1β3, 3 µM) came out at 654 ± 109%; in test [3] (read-out: efficacy, % of control current (GABA EC3-5 = 100%), α1β2, 3 µM), 689 ± 82.9%. Further, the current as % of control at 0.1 µM in test [4] came out at 80 ± 10%. Further, in test [4], the current as % of control at 0.3 µM amounted to 85 ± 12%. Further, the current as % of control at 1 µM in test [4] was 110 ± 20%. Moreover, the current as % of control at 3 µM in test [4] is 150 ± 25%. Besides, in test [4], the current as % of control at 10 µM amounted to 180 ± 45%. Besides, the current as % of control at 30 µM in test [4] came out at 140 ± 15%.
Regarding `COc1ccc2[nH]cc3c(=O)n(-c4ccc(C)cc4)nc-3c2c1` [Compound 5, 8-Methoxy-2-(4-methylphenyl)-2,5-dihydro-3H-pyrazolo[4,3-c]quinolin-3-one], the activity at 0.01 µM in test [1] (read-out: efficacy, % of control current (GABA EC3-5 = 100%), α1β1, 10 nM) is 123%. Besides, the activity at 10 µM in test [1] (read-out: efficacy, % of control current (GABA EC3-5 = 100%), α1β1, 10 µM) worked out at 732 ± 141%. Also, in test [1] (setting [6]), the activity at 30 µM stood at 637 ± 114%. Further, in test [1] (α1β1), the “Hill slope (nH)” value amounted to 1.0± 0.5. Moreover, the EC50 in test [1] (setting [7]) came out at 0.71 µM. Further, in test [2] (read-out: efficacy, % of control current (GABA EC3-5 = 100%), α1β3, 10 nM), the activity at 0.01 µM was 111 ± 5.7%. Also, the activity at 0.03 µM in test [2] (read-out: efficacy, % of control current (GABA EC3-5 = 100%), α1β3, 30 nM) worked out at 115 ± 8.1%. The activity at 0.1 µM in test [2] (setting [8]) was determined as 126 ± 11.5%. In test [2] (read-out: efficacy, % of control current (GABA EC3-5 = 100%), α1β3, 30 µM), the activity at 30 µM was 623 ± 114%. The EC50 in test [2] (setting [9]) worked out at 3.49 µM. Besides, in test [3], the EC50 came out at 3.74 µM. Also, in test [3] (setting [10]), the activity at 0.003 µM came out at 100%, the activity at 1 µM turned out to be 179 ± 8.3% and the activity at 30 µM came out at 651 ± 148%. The “Hill slope (nH)” value in test [3] (α1β2) worked out at 2.8±1.7. Also, in test [4], the current as % of control at 0.1 µM was 95 ± 20%, the current as % of control at 0.3 µM came out at 85 ± 25%, the current as % of control at 1 µM came out at 100 ± 30% and the current as % of control at 3 µM stood at 120 ± 30%. Also, in test [4], the current as % of control at 10 µM was 155 ± 40% and the current as % of control at 30 µM amounted to 160 ± 40%. In addition, the EC50 in test [5] came to 2.47 µM.
In the case of `COc1ccc2[nH]cc3c(=O)n(-c4ccc(N)cc4)nc-3c2c1` [Compound 6, 2-(4-Aminophenyl)-8-methoxy-2,5-dihydro-3H-pyrazolo[4,3-c]quinolin-3-one], in test [1] (setting [6]), the activity at 0.03 µM was determined as 100% and the activity at 0.3 µM turned out to be 153 ± 9.5%. In addition, in test [1] (α1β1), the “Hill slope (nH)” value was 1.3±0.2. In addition, in test [1] (setting [7]), the EC50 was 0.65 µM. For the same compound, in test [2] (read-out: efficacy, % of control current (GABA EC3-5 = 100%), α1β3, 3 nM), the activity at 0.003 µM came out at 100 ± 1.9%. In test [2] (setting [8]), the activity at 0.1 µM worked out at 95 ± 5% and the activity at 1 µM stood at 97.5 ± 0.5%. Further, in test [3] (setting [10]), the activity at 0.03 µM amounted to 98 ± 3%, the activity at 1 µM was 97.5 ± 9.5% and the activity at 30 µM was 105 ± 8.3%. The activity at 0.1 µM in test [3] (read-out: efficacy, % of control current (GABA EC3-5 = 100%), α1β2, 100 nM) stood at 99.5 ± 5.5%. For the same compound, in test [3] (read-out: efficacy, % of control current (GABA EC3-5 = 100%), α1β2, 10 µM), the activity at 10 µM is 118 ± 9%. In addition, in test [4], the current as % of control at 0.1 µM was 75 ± 1%, the current as % of control at 0.3 µM came out at 90 ± 10%, the current as % of control at 1 µM worked out at 90 ± 15% and the current as % of control at 3 µM stood at 90 ± 20%. Besides, in test [4], the current as % of control at 10 µM came out at 70 ± 10% and the current as % of control at 30 µM amounted to 115 ± 1%. Further, the EC50 in test [5] was determined as 1.87 µM.
